# “And” between values parts separate entries of the source, which are not always exact repeats. Identical values can stand only once. “Also recorded” adds a separate entry of the source. Counter-ions that a name gives are not always drawn. Like-named read-outs stand apart in the source and are kept apart here.
# Legend:
# [1] = test system: HCT-116 colon cancer cells; assay: Study #1 orthotopic HCT-116 xenograft efficacy; assay type: in vivo, mouse
# [2] = cited from earlier work
# [3] = cited from earlier work; remark: listed apart in the source
# [4] = cited from earlier work; remark: listed apart in the source
# [5] = guinea pig; cited from earlier work
# [6] = rabbit; cited from earlier work
# [7] = test system: HCT-116 colon cancer cells; assay type: in vivo; conditions: 25.9 mg/kg i.v. Q4D x 3 wks
# [8] = test system: HCT-116 colon cancer cells; assay: Study #2 follow up orthotopic HCT-116 xenograft efficacy; assay type: in vivo, female BALB/c nude mice; conditions: 25.9 mg/kg i.v. BIW x 6 doses
# [9] = SN-38 content of NMP/VitE TPGS/polymer gels (HPLC); assay type: physicochemical
# Procedure: For HPC, both above tested percentages (2 and 5%) will be further tested with SN-38. […] This starting solution is prepared by over stirred 24 hours at 20° C. and then filtered before being used for into polymer solubilization.
# The three polymers of interest (HPMC E4M, HPMC E10M, and HPC Klucel) are weighed (according to the above selected percentages) and added for solubilization and under stirring onto the SN-38 solution in NMP/VitE TPGS 50/20 mixture. After 24 h stirring at 20° C., the 3 samples are visually observed, and their SN-38 content is assessed by HPLC (after dilution in an appropriate solvent).
# [10] = Visual SN-38 solubilization in PLGA/NMP mixtures; assay type: physicochemical; conditions: PLGA (75:25):NMP mixture at mass ratio 1:2
# Procedure: SN-38 solubilization in these two PLGA/NMP solution mixtures is then tested with a SN-38 starting concentration of 20 mg/g and then decreasing the tested concentration if needed. Table 13 presents the results of macroscopic observation of tentative SN-38 solubilization in PLGA/NMP mixtures
# [11] = times more cytotoxic than CPT-11; cited from earlier work
# [12] = SN-38 solubility at saturation in excipients and excipient mixtures (HPLC); assay type: physicochemical
# Procedure: The saturation is obtained by adding gradually an excess of active ingredient (maximum target being 50 mg/mL) to a given volume of test medium. […]
# The supernatant is then isolated, diluted in a solvent mixture allowing its injection into the chromatographic system. The concentration in solution for each medium is determined by HPLC (external standardization).
structure (smiles),measurement,setting,value
"CCc1c2c(nc3ccc(OC(=O)N4CCC(N5CCCCC5)CC4)cc13)-c1cc3c(c(=O)n1C2)COC(=O)[C@]3(O)CC [CPT-11, irinotecan]",Tumor weights on Day 34 Geometric mean,[1]; 50 mg/kg i.p. Q4D x 3 wks,24.9 mg
same,Tumor weights on Day 34 TGI %,[1]; 50 mg/kg i.p. Q4D x 3 wks,85%
same,dogs showing emesis,[2]; 20 mg/kg i.v.,five of six
same,mortality,"[2]; dogs, 40 mg/kg",the two dogs died 3 and 6 minutes later
same,time to emesis,"[2]; dogs, 40 mg/kg",1 min
same,aqueous solubility,"[3]; HCl salt, in water",25 mM
same,irinotecan remained unhydrolyzed,"[4]; humans, at the end of a 24-hour infusion",33-66%
same,bioconversion to SN-38,[4]; in humans,~5%
same,antigenic potential,[5],has shown antigenic potential
same,antigenic potential,[6],has shown antigenic potential
"CCc1c2c(nc3ccc(OC(=O)N4CCC(N5CCCCC5)CC4)cc13)-c1cc3c(c(=O)n1C2)COC(=O)[C@]3(O)CC [Irinotecan HCL trihydrate, Irinotecan HCL Trihydrate]",Tumor weights on Day 34 Geometric mean,[1]; 20.8 mg/kg i.v. BIW x 3 wks,171.0 mg
same,Tumor weights on Day 34 TGI %,[1]; 20.8 mg/kg i.v. BIW x 3 wks,78%
same,Tumor weights on Day 34 Geometric mean,[7],428.6 mg
same,Tumor weights on Day 34 TGI %,[7],60%
same,Tumor weights on Day 32 Geometric mean,[8],134.0 mg
same,Tumor weights on Day 32 TGI %,[8],84%
"CCc1c2c(nc3ccc(O)cc13)-c1cc3c(c(=O)n1C2)COC(=O)[C@]3(O)CC [SN-38, 7-Ethyl-10-hydroxy-camptothecin]",SN-38 content calculated by HPLC,[9]; 2% HPC (vs NMP) in NMP/VitE TPGS (50 w/20 w),14.32 mg/g
same,SN-38 content calculated by HPLC,[9]; 4% HPMC E4M (vs NMP) in NMP/VitE TPGS (50 w/20 w),14.03 mg/g
same,SN-38 content calculated by HPLC,[9]; 4% HPMC E10M (vs NMP) in NMP/VitE TPGS (50 w/20 w),14.00 mg/g
same,SN-38 content calculated by HPLC,"[9]; 5% HPC (vs NMP) in NMP/VitE TPGS (50 w/20 w), 24 h stirring at 20° C.",13.95 mg/g
same,SN-38 precipitation on addition of gelling polymers,"[9]; HPMC E4M, HPMC E10M or HPC added onto 15 mg/g SN-38 solution in NMP/VitE TPGS 50/20",No SN-38 precipitation is observed; also recorded: without precipitation of SN-38
same,SN-38 content calculated by HPLC,"[9]; No polymer in NMP/VitE TPGS (50 w/20 w), filtered 15 mg/g starting solution",14.47 mg/g
same,emesis or nausea,"[2]; dogs, 11.6 mg/kg i.v.",no emesis or nausea was noted
same,solubility in water,[3]; Zhang et al. 2004,< 0.04 mg/mL
same,solubility (S),[3]; background statement b6,< 0.01 mg/mL
same,antigenic potential,[5],no antigenic potential
same,Concentration at which SN-38 is soluble,[10],10 mg/g
same,cytotoxicity relative to CPT-11,[11],200-2000 times
same,SN-38 solubility,"[12]; in Cremophor EL at 30% in water, 20° C.",0.017 mg/g
same,SN-38 solubility,"[12]; in Labrafil M1944CS, 20° C.",0.054 mg/g
same,SN-38 solubility,"[12]; in NMP/VitE TPGS (50/20 w/w), 20° C.",18.51 mg/g
same,SN-38 solubility,[12]; in NMP/VitE TPGS/Capmul MCM/Tween 20 (50/20/10/20 w/w),7.57 mg/g
same,SN-38 solubility,"[12]; in NMP/VitE TPGS/GELUCIRE (50/20/20), 20° C.",9.2 mg/g and 9.25 mg/g
same,SN-38 solubility,[12]; in NMP/VitE TPGS/Isopropyl myristate/Solutol HS15 (50/20/10/20 w/w),9.04 mg/g
same,SN-38 solubility,"[12]; in NMP/VitE TPGS/KOLLIDON VA64 (50/20/20), 20° C.",15.6 mg/g and 15.65 mg/g
same,SN-38 solubility,"[12]; in NMP/VitE TPGS/LUTROL F127 (50/20/20), 25° C.",10.0 mg/g and 10.02 mg/g
same,SN-38 solubility,[12]; in NMP/VitE TPGS/Labrafac Lipophile WL1349/Lauroglycol 90 (50/20/10/20 w/w),2.76 mg/g
same,SN-38 solubility,[12]; in NMP/VitE TPGS/Mygliol 812/Propylene glycol (50/20/10/20 w/w),5.95 mg/g
same,SN-38 solubility,"[12]; in NMP, 24 h stirring at 20° C.",42 mg/g
same,SN-38 solubility,"[12]; in Propylene glycol, 20° C.",1.15 mg/g
same,SN-38 solubility,"[12]; in VitE TPGS at 20% in water, 20° C.",≈0.01 mg/g
same,SN-38 solubility,"[12]; in all other tested media (other than NMP, propylene glycol, Capmul MCM)",lower than 0.054 mg/g

# From patent US12318372B2, “Formulations with enhanced SN-38 solubility and oral absorption” (TaiRx Inc., priority 2021, dated 2025)
